According to the supplement of paper PMC4862054:

The compounds below were run on HCC1143 (assay: normalised viability (% of control), CellTiter-Blue; higher = more viable cells (about 100 = DMSO control)). Settings: 10 nM; incubation time: 72 h.
Outline: (§1)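 Vehicle (100) and a positive kill control (0) anchored the normalisation of each plate, and Z'-factor was used for quality control. Breast cancer cell lines in 20 µl suspension were incubated 72 h over compound in 5 µl medium in 384-well plates, followed by CellTiter-Blue at 560/590 nm. The value is normalised viability at a single listed concentration of the series.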

| SMILES | normalised viability [%] |
| --- | --- |
| CN[C@@H]1C[C@H]2O[C@@](C)([C@@H]1OC)n1c3ccccc3c3c4c(c5c6ccccc6n2c5c31)C(=O)N[C@H]4O [UCN-01] | 77.7 |
| C[C@@H](Oc1cc(-c2cnn(C3CCNCC3)c2)cnc1N)c1c(Cl)ccc(F)c1Cl [Crizotinib] | 87.8 |
| CC1(C)NC(=O)N(c2ccc([N+](=O)[O-])c(C(F)(F)F)c2)C1=O [Nilutamide] | 89.3 |
| CNCc1ccc(-c2[nH]c3cc(F)cc4c3c2CCNC4=O)cc1 [Rucaparib] | 84.3 |

Same assay, conditions: 100 nM; incubation time: 72 h

| SMILES | normalised viability [%] |
| --- | --- |
| CC(=O)Nc1ccc(C(=O)Nc2ccccc2N)cc1 [CI-994] | 118 |
| Cc1ccc(C(=O)Nc2ccc(CN3CCN(C)CC3)c(C(F)(F)F)c2)cc1C#Cc1cnc2cccnn12 [Ponatinib] | 113 |

Same assay, conditions: 1000 nM; incubation time: 72 h

| SMILES | normalised viability [%] |
| --- | --- |
| Oc1nc(-c2ccc(C(F)(F)F)cc2)nc2c1CSCC2 [XAV-939] | 81.9 |
| CC(=O)Nc1ccc(C(=O)Nc2ccccc2N)cc1 [CI-994] | 101 |
| N.N.[Cl][Pt][Cl] [Cisplatin] | 89.3 |
| Cc1ccc(C(=O)Nc2ccc(CN3CCN(C)CC3)c(C(F)(F)F)c2)cc1C#Cc1cnc2cccnn12 [Ponatinib] | 98.8 |
| CN[C@@H]1C[C@H]2O[C@@](C)([C@@H]1OC)n1c3ccccc3c3c4c(c5c6ccccc6n2c5c31)C(=O)N[C@H]4O [UCN-01] | 20.6 |
| C[C@@H](Oc1cc(-c2cnn(C3CCNCC3)c2)cnc1N)c1c(Cl)ccc(F)c1Cl [Crizotinib] | 96.1 |
| CC1(C)NC(=O)N(c2ccc([N+](=O)[O-])c(C(F)(F)F)c2)C1=O [Nilutamide] | 113 |
| CNCc1ccc(-c2[nH]c3cc(F)cc4c3c2CCNC4=O)cc1 [Rucaparib] | 94.2 |

Same assay, conditions: 10000 nM; incubation time: 72 h

| SMILES | normalised viability [%] |
| --- | --- |
| Oc1nc(-c2ccc(C(F)(F)F)cc2)nc2c1CSCC2 [XAV-939] | 80.9 |
| N.N.[Cl][Pt][Cl] [Cisplatin] | 89.2 |
| CN[C@@H]1C[C@H]2O[C@@](C)([C@@H]1OC)n1c3ccccc3c3c4c(c5c6ccccc6n2c5c31)C(=O)N[C@H]4O [UCN-01] | 20.4 |
| C[C@@H](Oc1cc(-c2cnn(C3CCNCC3)c2)cnc1N)c1c(Cl)ccc(F)c1Cl [Crizotinib] | 42.5 |
| CC1(C)NC(=O)N(c2ccc([N+](=O)[O-])c(C(F)(F)F)c2)C1=O [Nilutamide] | 94 |
| CNCc1ccc(-c2[nH]c3cc(F)cc4c3c2CCNC4=O)cc1 [Rucaparib] | 89.9 |

What follows are compounds tested on BT-549 in the same assay as above. Settings: 1 nM; incubation time: 72 h.
Outline: as §1

| SMILES | normalised viability [%] |
| --- | --- |
| CC(=O)Nc1ccc(C(=O)Nc2ccccc2N)cc1 [CI-994] | 116 |
| Cc1ccc(C(=O)Nc2ccc(CN3CCN(C)CC3)c(C(F)(F)F)c2)cc1C#Cc1cnc2cccnn12 [Ponatinib] | 107 |

Same assay, conditions: 10 nM; incubation time: 72 h

| SMILES | normalised viability [%] |
| --- | --- |
| Oc1nc(-c2ccc(C(F)(F)F)cc2)nc2c1CSCC2 [XAV-939] | 91.3 |
| N.N.[Cl][Pt][Cl] [Cisplatin] | 87.5 |
| CN[C@@H]1C[C@H]2O[C@@](C)([C@@H]1OC)n1c3ccccc3c3c4c(c5c6ccccc6n2c5c31)C(=O)N[C@H]4O [UCN-01] | 91.4 |
| C[C@@H](Oc1cc(-c2cnn(C3CCNCC3)c2)cnc1N)c1c(Cl)ccc(F)c1Cl [Crizotinib] | 107 |
| CC1(C)NC(=O)N(c2ccc([N+](=O)[O-])c(C(F)(F)F)c2)C1=O [Nilutamide] | 97.2 |
| CNCc1ccc(-c2[nH]c3cc(F)cc4c3c2CCNC4=O)cc1 [Rucaparib] | 100 |

Same assay, conditions: 100 nM; incubation time: 72 h

| SMILES | normalised viability [%] |
| --- | --- |
| CC(=O)Nc1ccc(C(=O)Nc2ccccc2N)cc1 [CI-994] | 97 |
| Cc1ccc(C(=O)Nc2ccc(CN3CCN(C)CC3)c(C(F)(F)F)c2)cc1C#Cc1cnc2cccnn12 [Ponatinib] | 120 |

Same assay, conditions: 1000 nM; incubation time: 72 h

| SMILES | normalised viability [%] |
| --- | --- |
| Oc1nc(-c2ccc(C(F)(F)F)cc2)nc2c1CSCC2 [XAV-939] | 94.5 |
| CC(=O)Nc1ccc(C(=O)Nc2ccccc2N)cc1 [CI-994] | 112 |
| N.N.[Cl][Pt][Cl] [Cisplatin] | 87.6 |
| Cc1ccc(C(=O)Nc2ccc(CN3CCN(C)CC3)c(C(F)(F)F)c2)cc1C#Cc1cnc2cccnn12 [Ponatinib] | 49.3 |
| CN[C@@H]1C[C@H]2O[C@@](C)([C@@H]1OC)n1c3ccccc3c3c4c(c5c6ccccc6n2c5c31)C(=O)N[C@H]4O [UCN-01] | 11.8 |
| C[C@@H](Oc1cc(-c2cnn(C3CCNCC3)c2)cnc1N)c1c(Cl)ccc(F)c1Cl [Crizotinib] | 107 |
| CC1(C)NC(=O)N(c2ccc([N+](=O)[O-])c(C(F)(F)F)c2)C1=O [Nilutamide] | 85.5 |
| CNCc1ccc(-c2[nH]c3cc(F)cc4c3c2CCNC4=O)cc1 [Rucaparib] | 107 |

Same assay, conditions: 10000 nM; incubation time: 72 h

| SMILES | normalised viability [%] |
| --- | --- |
| Oc1nc(-c2ccc(C(F)(F)F)cc2)nc2c1CSCC2 [XAV-939] | 101 |
| N.N.[Cl][Pt][Cl] [Cisplatin] | 88.8 |
| CN[C@@H]1C[C@H]2O[C@@](C)([C@@H]1OC)n1c3ccccc3c3c4c(c5c6ccccc6n2c5c31)C(=O)N[C@H]4O [UCN-01] | 0.77 |
| C[C@@H](Oc1cc(-c2cnn(C3CCNCC3)c2)cnc1N)c1c(Cl)ccc(F)c1Cl [Crizotinib] | 30.1 |
| CC1(C)NC(=O)N(c2ccc([N+](=O)[O-])c(C(F)(F)F)c2)C1=O [Nilutamide] | 97.2 |
| CNCc1ccc(-c2[nH]c3cc(F)cc4c3c2CCNC4=O)cc1 [Rucaparib] | 93.8 |

Each compound was assayed on CAL-120 in the same assay as above. Settings: 1 nM; incubation time: 72 h.
Outline: as §1

| SMILES | normalised viability [%] |
| --- | --- |
| CC(=O)Nc1ccc(C(=O)Nc2ccccc2N)cc1 [CI-994] | 99.9 |
| Cc1ccc(C(=O)Nc2ccc(CN3CCN(C)CC3)c(C(F)(F)F)c2)cc1C#Cc1cnc2cccnn12 [Ponatinib] | 95.3 |

Same assay, conditions: 10 nM; incubation time: 72 h

| SMILES | normalised viability [%] |
| --- | --- |
| Oc1nc(-c2ccc(C(F)(F)F)cc2)nc2c1CSCC2 [XAV-939] | 90.6 |
| N.N.[Cl][Pt][Cl] [Cisplatin] | 90.3 |
| CN[C@@H]1C[C@H]2O[C@@](C)([C@@H]1OC)n1c3ccccc3c3c4c(c5c6ccccc6n2c5c31)C(=O)N[C@H]4O [UCN-01] | 72.8 |
| C[C@@H](Oc1cc(-c2cnn(C3CCNCC3)c2)cnc1N)c1c(Cl)ccc(F)c1Cl [Crizotinib] | 90.3 |
| CC1(C)NC(=O)N(c2ccc([N+](=O)[O-])c(C(F)(F)F)c2)C1=O [Nilutamide] | 95.6 |
| CNCc1ccc(-c2[nH]c3cc(F)cc4c3c2CCNC4=O)cc1 [Rucaparib] | 77.4 |

Same assay, conditions: 100 nM; incubation time: 72 h

| SMILES | normalised viability [%] |
| --- | --- |
| CC(=O)Nc1ccc(C(=O)Nc2ccccc2N)cc1 [CI-994] | 106 |
| Cc1ccc(C(=O)Nc2ccc(CN3CCN(C)CC3)c(C(F)(F)F)c2)cc1C#Cc1cnc2cccnn12 [Ponatinib] | 85.4 |

Same assay, conditions: 1000 nM; incubation time: 72 h

| SMILES | normalised viability [%] |
| --- | --- |
| Oc1nc(-c2ccc(C(F)(F)F)cc2)nc2c1CSCC2 [XAV-939] | 92.8 |
| CC(=O)Nc1ccc(C(=O)Nc2ccccc2N)cc1 [CI-994] | 88.9 |
| N.N.[Cl][Pt][Cl] [Cisplatin] | 93.3 |
| Cc1ccc(C(=O)Nc2ccc(CN3CCN(C)CC3)c(C(F)(F)F)c2)cc1C#Cc1cnc2cccnn12 [Ponatinib] | 13.8 |
| CN[C@@H]1C[C@H]2O[C@@](C)([C@@H]1OC)n1c3ccccc3c3c4c(c5c6ccccc6n2c5c31)C(=O)N[C@H]4O [UCN-01] | 17.7 |
| C[C@@H](Oc1cc(-c2cnn(C3CCNCC3)c2)cnc1N)c1c(Cl)ccc(F)c1Cl [Crizotinib] | 83.4 |
| CC1(C)NC(=O)N(c2ccc([N+](=O)[O-])c(C(F)(F)F)c2)C1=O [Nilutamide] | 90.1 |
| CNCc1ccc(-c2[nH]c3cc(F)cc4c3c2CCNC4=O)cc1 [Rucaparib] | 81 |

Same assay, conditions: 10000 nM; incubation time: 72 h

| SMILES | normalised viability [%] |
| --- | --- |
| Oc1nc(-c2ccc(C(F)(F)F)cc2)nc2c1CSCC2 [XAV-939] | 105 |
| N.N.[Cl][Pt][Cl] [Cisplatin] | 102 |
| CN[C@@H]1C[C@H]2O[C@@](C)([C@@H]1OC)n1c3ccccc3c3c4c(c5c6ccccc6n2c5c31)C(=O)N[C@H]4O [UCN-01] | 9.93 |
| C[C@@H](Oc1cc(-c2cnn(C3CCNCC3)c2)cnc1N)c1c(Cl)ccc(F)c1Cl [Crizotinib] | 9.87 |
| CC1(C)NC(=O)N(c2ccc([N+](=O)[O-])c(C(F)(F)F)c2)C1=O [Nilutamide] | 116 |
| CNCc1ccc(-c2[nH]c3cc(F)cc4c3c2CCNC4=O)cc1 [Rucaparib] | 76.8 |

What follows are compounds tested on CAL-51 in the same assay as above. Settings: 0.3 nM; incubation time: 72 h.
Outline: as §1

| SMILES | normalised viability [%] |
| --- | --- |
| CC(=O)Nc1ccc(C(=O)Nc2ccccc2N)cc1 [CI-994] | 94.6 |
| Cc1ccc(C(=O)Nc2ccc(CN3CCN(C)CC3)c(C(F)(F)F)c2)cc1C#Cc1cnc2cccnn12 [Ponatinib] | 95.2 |

Same assay, conditions: 3 nM; incubation time: 72 h

| SMILES | normalised viability [%] |
| --- | --- |
| Oc1nc(-c2ccc(C(F)(F)F)cc2)nc2c1CSCC2 [XAV-939] | 102 |
| CC(=O)Nc1ccc(C(=O)Nc2ccccc2N)cc1 [CI-994] | 94.6 |
| N.N.[Cl][Pt][Cl] [Cisplatin] | 107 |
| Cc1ccc(C(=O)Nc2ccc(CN3CCN(C)CC3)c(C(F)(F)F)c2)cc1C#Cc1cnc2cccnn12 [Ponatinib] | 97.7 |
| CN[C@@H]1C[C@H]2O[C@@](C)([C@@H]1OC)n1c3ccccc3c3c4c(c5c6ccccc6n2c5c31)C(=O)N[C@H]4O [UCN-01] | 99.7 |
| C[C@@H](Oc1cc(-c2cnn(C3CCNCC3)c2)cnc1N)c1c(Cl)ccc(F)c1Cl [Crizotinib] | 107 |
| CC1(C)NC(=O)N(c2ccc([N+](=O)[O-])c(C(F)(F)F)c2)C1=O [Nilutamide] | 101 |
| CNCc1ccc(-c2[nH]c3cc(F)cc4c3c2CCNC4=O)cc1 [Rucaparib] | 119 |

Same assay, conditions: 10 nM; incubation time: 72 h

| SMILES | normalised viability [%] |
| --- | --- |
| CC(=O)Nc1ccc(C(=O)Nc2ccccc2N)cc1 [CI-994] | 96.7 |
| Cc1ccc(C(=O)Nc2ccc(CN3CCN(C)CC3)c(C(F)(F)F)c2)cc1C#Cc1cnc2cccnn12 [Ponatinib] | 89.5 |

Same assay, conditions: 30 nM; incubation time: 72 h

| SMILES | normalised viability [%] |
| --- | --- |
| Oc1nc(-c2ccc(C(F)(F)F)cc2)nc2c1CSCC2 [XAV-939] | 101 |
| N.N.[Cl][Pt][Cl] [Cisplatin] | 97.9 |
| CN[C@@H]1C[C@H]2O[C@@](C)([C@@H]1OC)n1c3ccccc3c3c4c(c5c6ccccc6n2c5c31)C(=O)N[C@H]4O [UCN-01] | 87.2 |
| C[C@@H](Oc1cc(-c2cnn(C3CCNCC3)c2)cnc1N)c1c(Cl)ccc(F)c1Cl [Crizotinib] | 107 |
| CC1(C)NC(=O)N(c2ccc([N+](=O)[O-])c(C(F)(F)F)c2)C1=O [Nilutamide] | 96.1 |
| CNCc1ccc(-c2[nH]c3cc(F)cc4c3c2CCNC4=O)cc1 [Rucaparib] | 114 |

Same assay, conditions: 100 nM; incubation time: 72 h

| SMILES | normalised viability [%] |
| --- | --- |
| Oc1nc(-c2ccc(C(F)(F)F)cc2)nc2c1CSCC2 [XAV-939] | 101 |
| N.N.[Cl][Pt][Cl] [Cisplatin] | 109 |
| CN[C@@H]1C[C@H]2O[C@@](C)([C@@H]1OC)n1c3ccccc3c3c4c(c5c6ccccc6n2c5c31)C(=O)N[C@H]4O [UCN-01] | 62.6 |
| C[C@@H](Oc1cc(-c2cnn(C3CCNCC3)c2)cnc1N)c1c(Cl)ccc(F)c1Cl [Crizotinib] | 108 |
| CC1(C)NC(=O)N(c2ccc([N+](=O)[O-])c(C(F)(F)F)c2)C1=O [Nilutamide] | 94.6 |
| CNCc1ccc(-c2[nH]c3cc(F)cc4c3c2CCNC4=O)cc1 [Rucaparib] | 110 |
